In patent publication US10604526B2, “Chemokine receptor modulators and uses thereof” (RAPT THERAPEUTICS, INC., priority 2016, dated 2020):

target: T1, hCCR4 (Homo sapiens, UniProt P51679); test: Calcium flux assay; type: cell-based; details: Chem5-hCCR4 cells, CCL22 at EC80 of 1.5 nM, FLIPR Calcium 6 dye; read-out: Potency (IC50)
T1 sequence (P51679 1-360): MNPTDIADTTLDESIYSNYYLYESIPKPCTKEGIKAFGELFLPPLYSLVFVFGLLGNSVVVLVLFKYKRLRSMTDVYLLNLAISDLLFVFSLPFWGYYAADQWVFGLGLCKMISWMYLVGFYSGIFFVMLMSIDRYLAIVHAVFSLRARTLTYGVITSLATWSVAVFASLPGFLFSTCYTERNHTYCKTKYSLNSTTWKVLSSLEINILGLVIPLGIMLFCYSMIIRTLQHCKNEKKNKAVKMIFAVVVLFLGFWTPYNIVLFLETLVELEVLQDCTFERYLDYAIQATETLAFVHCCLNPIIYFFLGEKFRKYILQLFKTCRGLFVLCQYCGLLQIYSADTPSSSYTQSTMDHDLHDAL
How it was run: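 Chem5 cells expressing hCCR4 were serum-starved for 2 h, loaded with Calcium 6 dye plus 2.5 mM probenecid, then given compound for 1 h at 37 °C (0.5% DMSO). CCL22 was added from a 7.5 nM working solution (5× EC80 of 1.5 nM). IC50 came from ΔF/Fmin (485/525 nm) by 4-parameter fit.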

Compound	IC50 [nM]
Cc1nn([C@H](C)c2ccc(Cl)cc2Cl)c2nc(N3CC([C@@H]4CCCN(CCNC(=O)C(C)C)C4)C3)cnc12 (single isomer, unassigned) [Example 91]	< 100
CC(=O)NCCN1CCC[C@H](C2CN(c3cnc4c(C#N)nn([C@H](C)c5ccc(Cl)cc5Cl)c4n3)C2)C1 (single isomer, unassigned) [Example 92]	< 100
CC(=O)NCCN1CCC[C@@H](C2CN(c3cnc4c(C#N)nn([C@H](C)c5ccc(Cl)cc5Cl)c4n3)C2)C1 (single isomer, unassigned) [Example 93]	< 100
C[C@H](c1ccc(Cl)cc1Cl)n1nc(C#N)c2ncc(N3CC([C@@H]4CCN(CCCO)C4)C3)nc21 (single isomer, unassigned) [Example 94]	100 to 500
C[C@H](c1ccc(Cl)cc1Cl)n1nc(C#N)c2ncc(N3CC([C@H]4CCN(CCCO)C4)C3)nc21 (single isomer, unassigned) [Example 95]	< 100
Cc1nn([C@H](C)c2ccc(Cl)cc2Cl)c2nc(N3CC([C@@H]4CCCN(CCNS(=O)(=O)C(C)C)C4)C3)cnc12 (single isomer, unassigned) [Example 96]	100 to 500
Cc1nn([C@H](C)c2ccc(Cl)cc2Cl)c2nc(N3CC(C4CCCN(CCNS(=O)(=O)C(C)C)C4)C3)cnc12 (single isomer, unassigned) [Example 97]	< 100
Cc1nn([C@H](C)c2ccc(Cl)cc2Cl)c2nc(N3CC([C@@H]4CCCN(CCNS(C)(=O)=O)C4)C3)cnc12 (single isomer, unassigned) [Example 98]	100 to 500
Cc1nn([C@H](C)c2ccc(Cl)cc2Cl)c2nc(N3CC([C@H]4CCCN(CCNS(C)(=O)=O)C4)C3)cnc12 (single isomer, unassigned) [Example 99]	< 100
CC(=O)NCCN1CCC[C@H](C2CN(c3cnc4c(C)nn([C@H](C)c5ccc(Cl)cc5Cl)c4n3)C2)C1 (single isomer, unassigned) [Example 100]	< 100
CC(=O)NCCN1CCC[C@@H](C2CN(c3cnc4c(C)nn([C@H](C)c5ccc(Cl)cc5Cl)c4n3)C2)C1 (single isomer, unassigned) [Example 101]	< 100
C[C@H](c1ccc(Cl)cc1Cl)n1nc(C#N)c2ncc(N3CC([C@H]4CCCN(CCCS(N)(=O)=O)C4)C3)nc21 (single isomer, unassigned) [Example 107]	< 100
C[C@H](c1ccc(Cl)cc1Cl)n1nc(C#N)c2ncc(N3CC([C@@H]4CCCN(CCCS(N)(=O)=O)C4)C3)nc21 (single isomer, unassigned) [Example 108]	100 to 500
CC(C)S(=O)(=O)NCCN1CCC[C@H](C2CN(c3cnc4c(C(F)(F)F)nn([C@H](C)c5ccc(Cl)cc5Cl)c4n3)C2)C1 (single isomer, unassigned) [Example 109]	< 100
CC(C)S(=O)(=O)NCCN1CCC[C@@H](C2CN(c3cnc4c(C(F)(F)F)nn([C@H](C)c5ccc(Cl)cc5Cl)c4n3)C2)C1 (single isomer, unassigned) [Example 110]	100 to 500
C[C@H](c1ccc(Cl)cc1Cl)n1nc(C#N)c2ncc(N3CC([C@@H]4CCCN(Cc5cnc[nH]5)C4)C3)nc21 (single isomer, unassigned) [Example 111]	100 to 500
C[C@H](c1ccc(Cl)cc1Cl)n1nc(C#N)c2ncc(N3CC([C@H]4CCCN(Cc5cnc[nH]5)C4)C3)nc21 (single isomer, unassigned) [Example 112]	< 100
Cc1nn([C@H](C)c2ccc(Cl)cc2Cl)c2nc(N3CC([C@@H]4CCCN(CCCS(C)(=O)=O)C4)C3)cnc12 (single isomer, unassigned) [Example 113]	100 to 500
Cc1nn([C@H](C)c2ccc(Cl)cc2Cl)c2nc(N3CC([C@H]4CCCN(CCCS(C)(=O)=O)C4)C3)cnc12 (single isomer, unassigned) [Example 114]	< 100
C[C@H](c1ccc(Cl)cc1Cl)n1nc(C(F)(F)F)c2ncc(N3CC([C@@H]4CCCN(CCCS(C)(=O)=O)C4)C3)nc21 (single isomer, unassigned) [Example 115]	100 to 500
C[C@H](c1ccc(Cl)cc1Cl)n1nc(C(F)(F)F)c2ncc(N3CC([C@H]4CCCN(CCCS(C)(=O)=O)C4)C3)nc21 (single isomer, unassigned) [Example 116]	< 100
C[C@H](c1ccc(Cl)cc1F)n1nc(C#N)c2ncc(N3CC([C@H]4CCCN(CCO)C4)C3)nc21 [Example 55, 1-((R)-1-(4-chloro-2-fluorophenyl)ethyl)-6-(3-((R)-1-(2-hydroxyethyl)piperidin-3-yl)azetidin-1-yl)-1H-pyrazolo[3,4-b]pyrazine-3-carbonitrile]	< 100
CC(C)N1CCC[C@H](C2CN(c3cnc4c(C(F)(F)F)nn([C@H](C)c5ccc(Cl)cc5Cl)c4n3)C2)C1 [Example 102, 1-((R)-1-(2,4-dichlorophenyl)ethyl)-6-(3-((R)-1-isopropylpiperidin-3-yl)azetidin-1-yl)-3-(trifluoromethyl)-1H-pyrazolo[3,4-b]pyrazine]	100 to 500
C[C@H](c1ccc(Cl)cc1Cl)n1nc(C(F)(F)F)c2ncc(N3CC([C@H]4CCCN(C[C@@H](C)O)C4)C3)nc21 [Example 103, (R)-1-((R)-3-(1-(1-((R)-1-(2,4-dichlorophenyl)ethyl)-3-(trifluoromethyl)-1H-pyrazolo[3,4-b]pyrazin-6-yl)azetidin-3-yl)piperidin-1-yl)propan-2-ol]	< 100
C[C@H](O)CN1CCC[C@H](C2CN(c3cnc4c(C(F)(F)F)nn([C@H](C)c5ccc(Cl)cc5Cl)c4n3)C2)C1 [Example 104, (S)-1-((R)-3-(1-(1-((R)-1-(2,4-dichlorophenyl)ethyl)-3-(trifluoromethyl)-1H-pyrazolo[3,4-b]pyrazin-6-yl)azetidin-3-yl)piperidin-1-yl)propan-2-ol]	< 100
CC(=O)N[C@H](C)CN1CCC[C@H](C2CN(c3cnc4c(C(F)(F)F)nn([C@H](C)c5ccc(Cl)cc5Cl)c4n3)C2)C1 [Example 105, N—((R)-1-((R)-3-(1-(1-((R)-1-(2,4-dichlorophenyl)ethyl)-3-(trifluoromethyl)-1H-pyrazolo[3,4-b]pyrazin-6-yl)azetidin-3-yl)piperidin-1-yl)propan-2-yl)acetamide]	< 100
CC(=O)N[C@@H](C)CN1CCC[C@H](C2CN(c3cnc4c(C(F)(F)F)nn([C@H](C)c5ccc(Cl)cc5Cl)c4n3)C2)C1 [Example 106, N—((S)-1-((R)-3-(1-(1-((R)-1-(2,4-dichlorophenyl)ethyl)-3-(trifluoromethyl)-1H-pyrazolo[3,4-b]pyrazin-6-yl)azetidin-3-yl)piperidin-1-yl)propan-2-yl)acetamide]	< 100
N-(2-((R)-3-(1-(1-((R)-1-(2,4-dichlorophenyl)ethyl)-3-(trifluoromethyl)-1H-pyrazolo[3,4-b]pyrazin-6-yl)azetidin-3-yl)piperidin-1-yl)ethyl)propane-2-sulfonamide and N-(2-((S)-3-(1-(1-((R)-1-(2,4-dichlorophenyl)ethyl)-3-(trifluoromethyl)-1H-pyrazolo[3,4-b]pyrazin-6-yl)azetidin-3-yl)piperidin-1-yl)ethyl)propane-2-sulfonamide [Example 66]	< 100
